Measurements taken from paper PMC10348910, “Epigenetic reprogramming of cell cycle genes by ACK1 promotes breast cancer resistance to CDK4/6 inhibitor” (Oncogene, 2023).

Legend:
[1] = system: pY88-H4 marks in CXCR4 promoter region; experiment: ChIP-qPCR with pY88-H4 antibody for CXCR4 gene; type: cell-based; details: breast cancer cells
Protocol: Fig. 7 ACK1 inhibitor overcomes palbociclib-resistant breast cancer growth and metastasis. A 3 × 10^6 MDA-MB-468 cells were injected in the 4th inguinal mammary fat pad of female SCID mice. Once the tumors were palpable, the mice were treated with either vehicle (Captisol; n = 7), Palbociclib at 80 mg/kg (n = 6), or (R)-9b at 36 mg/Kg (n = 6) orally. In addition, mice were injected with (R)-9b at 24 mg/Kg (n = 7) subcutaneously. Mice were treated five times a week, for 22 days. B, C The tumors were harvested and photographed, and the weights were recorded. D Vehicle or (R)-9b treated breast cancer cells were subjected to ChIP using pY88-H4 antibody, followed by qPCR for CXCR4 gene. […] H Graphical quantitation of lung metastatic deposit. […] The metastases were assessed using IVIS. […] For (A, C–F, I), p values were calculated using unpaired two-tailed Student’s t test.
Cell pellets were resuspended in RLB buffer and sonicated and the soluble chromatin was incubated with antibodies and Protein-G/A magnetic beads. […] The size and quality of the library was evaluated using the Agilent BioAnalyzer (Agilent Technologies, Inc., Santa Clara, CA), and the library was quantitated with the Kapa Library Quantification Kit. Each enriched DNA library was then sequenced on an Illumina NextSeq 500 sequencer to generate 40–50 million 75-base paired-end reads (Illumina, Inc., San Diego, CA). […]

Cal-148 xenografts = experiment: Cal-148 xenograft in mammary fat pad; type: in vivo, female SCID mice; details: 24 mg/Kg subcutaneously, 4 weeks
Protocol: In order to assess the in vivo implications of ACK1 inhibition in TNBCs, Cal-148 xenografts were established in mammary fat pad of female SCID mice. Once the tumors were palpable, the mice were injected subcutaneously with 24 mg/Kg of (R)-9b for 4 weeks and the tumor volumes were measured. On reaching the endpoint, the mice were sacrificed and the tumors were harvested, weighed and photographed. […] RNA was prepared from the tumors, followed by qRT-PCR.
Fig. 6 (R)-9b inhibits breast cancer xenograft tumor growth in vivo. A 2 × 10^6 Cal-148 cells were injected in the 4th inguinal mammary fat pad of female SCID mice. Once the tumors were palpable, the mice were treated subcutaneously with either vehicle (Captisol; n = 8) or (R)-9b at 24 mg/Kg (n = 8) five times a week, for 4 weeks. The tumor volumes were measured twice a week. B, C The tumors were harvested and photographed, and the weights were recorded. D RNA was prepared from the tumors, followed by qRT-PCR to determine the levels of CCNB1, CCNB2 and CDC20 mRNA (n = 3 each). […] The tumors were harvested, their weights were recorded and photographed. […]
All animal experiments were performed using the standards for humane care in accordance with the NIH Guide for the Care and Use of Laboratory Animals. […] Tumor volumes were measured twice a week using calipers. […]

[2] = plasma protein binding in human plasma

CN1CCN(c2ccc(Nc3ncc(Cl)c(NC[C@H]4CCCO4)n3)cc2)CC1 [(R)-9b]
pY88-H4 epigenetic marks in CXCR4 promoter region [1]: erased these marks | CCNB1, CCNB2 and CDC20 mRNA levels in tumors (Cal-148 xenografts): significant decrease | xenograft tumor growth (Cal-148 xenografts; five times a week): significant suppression | remaining after 6 h of treatment ([2]; 6 h): over 96% | fraction unbound ([2]; human, plasma, Plasma Protein Binding (PPB)): 0.17
